The record followed here is ChEMBL document CHEMBL4330091, “The discovery and optimization of benzimidazoles as selective NaV1.8 blockers for the treatment of pain” (Bioorg Med Chem, 2019).

Values after ≈ are worked out from the molar mass of the structure shown.

The target in series [1] is Sodium channel protein type 10 subunit alpha (Homo sapiens, UniProt Q9Y5Y9). As to the kind of experiment: Inhibition of human Nav1.8 expressed in HEK cells by patch-clamp electrophysiology method. It is filed as cell-based. Background: In patch-clamp work, channel activity is measured electrically.
Series [2] can be described thus: Apparent permeability from apical to basolateral in RRCK cells. It is filed as ADME, cell-based, Canis lupus familiaris, MDCKII-LE. As to conditions: dog, MDCK.
Series [3] is described as follows: Dissociation constant, pKa of the compound. It is filed as physicochemical.
In series [4] the target is Voltage-gated inwardly rectifying potassium channel KCNH2 (Homo sapiens, UniProt Q12809). As to the kind of experiment: Inhibition of human ERG.
The nature of series [5]: Stability in human liver microsomes assessed per mg protein. The series is classed as ADME, Microsome. Background: Liver microsomes are a subcellular fraction often used to study metabolism.
Series [6] concerns the target Sodium channel protein type 5 subunit alpha (Homo sapiens, UniProt Q14524). Nature of the series: Inhibition of human Nav1.5.
The nature of series [7]: Stability in human hepatocytes assessed per million cells. The series is classed as ADME, cell-based, Hepatocyte.
In series [8] the target is Nav1.5 (SCN5A) (Homo sapiens, UniProt Q14524). Nature of the series: Inhibition of human Nav1.5 at 10 uM.
Series [9] can be described thus: Half life in rat at 1 mg/kg, iv or 3 mg/kg, po. The series is classed as ADME, organism-based. As to conditions: in vivo.
In series [10] the target is T1, Potassium voltage-gated channel subfamily KQT member 1 (Homo sapiens, UniProt P51787).
T1 sequence (P51787 whole entry): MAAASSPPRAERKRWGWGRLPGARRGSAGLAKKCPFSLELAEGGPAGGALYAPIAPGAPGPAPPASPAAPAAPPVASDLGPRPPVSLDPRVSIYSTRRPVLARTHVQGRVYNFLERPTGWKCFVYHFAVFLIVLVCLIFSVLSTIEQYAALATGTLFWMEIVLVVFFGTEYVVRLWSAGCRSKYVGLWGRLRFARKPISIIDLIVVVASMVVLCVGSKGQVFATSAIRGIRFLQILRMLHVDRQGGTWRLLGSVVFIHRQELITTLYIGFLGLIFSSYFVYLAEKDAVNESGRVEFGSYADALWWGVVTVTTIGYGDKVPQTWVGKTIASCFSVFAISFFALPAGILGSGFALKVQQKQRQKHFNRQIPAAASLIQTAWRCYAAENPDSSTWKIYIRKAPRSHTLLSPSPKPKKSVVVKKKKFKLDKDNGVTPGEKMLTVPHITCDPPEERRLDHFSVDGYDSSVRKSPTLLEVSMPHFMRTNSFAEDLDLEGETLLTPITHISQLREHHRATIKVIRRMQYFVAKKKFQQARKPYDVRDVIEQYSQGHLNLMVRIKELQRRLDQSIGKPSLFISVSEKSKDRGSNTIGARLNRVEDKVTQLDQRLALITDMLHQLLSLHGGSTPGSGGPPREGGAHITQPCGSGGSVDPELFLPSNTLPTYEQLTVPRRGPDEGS
Nature of the series: Inhibition of KvLQT1 (unknown origin).

Series [11] has as its target T2, Gamma-aminobutyric acid receptor subunit alpha-1/gamma-2 (Homo sapiens, UniProt P14867+P18507).
T2 sequence (P14867 whole entry): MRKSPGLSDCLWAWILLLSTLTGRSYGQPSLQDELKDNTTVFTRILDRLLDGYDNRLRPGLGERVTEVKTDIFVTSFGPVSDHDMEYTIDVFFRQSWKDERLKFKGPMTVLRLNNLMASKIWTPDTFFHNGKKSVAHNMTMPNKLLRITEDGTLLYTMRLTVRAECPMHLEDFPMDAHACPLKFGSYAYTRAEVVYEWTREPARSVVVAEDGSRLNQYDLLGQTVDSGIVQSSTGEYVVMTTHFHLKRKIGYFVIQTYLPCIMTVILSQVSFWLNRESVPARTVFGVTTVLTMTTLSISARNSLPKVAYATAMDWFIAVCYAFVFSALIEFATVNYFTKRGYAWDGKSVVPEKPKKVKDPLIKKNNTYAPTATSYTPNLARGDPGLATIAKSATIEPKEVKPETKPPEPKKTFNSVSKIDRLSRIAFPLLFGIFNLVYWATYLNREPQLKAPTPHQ
T2 sequence (P18507 whole entry): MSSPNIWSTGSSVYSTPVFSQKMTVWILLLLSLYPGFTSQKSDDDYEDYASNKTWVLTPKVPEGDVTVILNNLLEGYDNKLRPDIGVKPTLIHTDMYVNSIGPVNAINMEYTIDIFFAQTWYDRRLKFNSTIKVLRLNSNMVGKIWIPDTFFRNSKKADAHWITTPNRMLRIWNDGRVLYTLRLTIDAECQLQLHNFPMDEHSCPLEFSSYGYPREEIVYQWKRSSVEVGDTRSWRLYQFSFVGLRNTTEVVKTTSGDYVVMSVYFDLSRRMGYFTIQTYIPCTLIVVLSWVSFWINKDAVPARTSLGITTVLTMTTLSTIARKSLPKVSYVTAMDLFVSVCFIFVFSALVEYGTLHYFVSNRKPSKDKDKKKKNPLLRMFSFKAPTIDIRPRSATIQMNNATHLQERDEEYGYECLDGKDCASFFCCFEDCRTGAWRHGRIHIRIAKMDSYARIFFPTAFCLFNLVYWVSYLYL
As to the kind of experiment: Inhibition of GABA receptor alpha1gamma2 (unknown origin). The series is classed as protein-complex assay.

The nature of series [12]: AUC (0 to infinity) in rat at 1 mg/kg, iv or 3 mg/kg, po. As to conditions: in vivo. It is filed as ADME, organism-based.
The target of series [13] is Sodium channel protein type 9 subunit alpha (Homo sapiens, UniProt Q15858). As to the kind of experiment: Inhibition of human Nav1.7.
Series [14] addresses Potassium voltage-gated channel subfamily A member 5 (Homo sapiens, UniProt P22460). Nature of the series: Inhibition of Kv1.5 (unknown origin).
Series [15] in a line: Oral bioavailability in rat at 3 mg/kg. It is filed as ADME, organism-based. As to conditions: in vivo.
The target of series [16] is Sodium channel protein type 2 subunit alpha (Homo sapiens, UniProt Q99250). Nature of the series: Inhibition of human Nav1.2.
The target of series [17] is Sodium channel protein type 4 subunit alpha (Homo sapiens, UniProt P35499). Nature of the series: Inhibition of human Nav1.4.
A short description of series [18]: Volume of distribution in rat at 1 mg/kg, iv or 3 mg/kg, po. As to conditions: in vivo. The series is classed as ADME, organism-based.
The nature of series [19]: Lipophilicity, log D of the compound. As to conditions: octanol/water. The series is classed as physicochemical.
Series [20] is described as follows: Unbound clearance in rat at 1 mg/kg, iv or 3 mg/kg, po. It is filed as ADME, organism-based. As to conditions: in vivo.
A short description of series [21]: Solubility of the compound at pH 7.4. It is filed as physicochemical. As to conditions: buffer.
Series [22] has as its target Potassium voltage-gated channel subfamily A member 2 (Homo sapiens, UniProt P16389). As to the kind of experiment: Inhibition of Kv1.2 (unknown origin).
In series [23] the target is Sodium channel protein type 1 subunit alpha (Homo sapiens, UniProt P35498). Nature of the series: Inhibition of human Nav1.1.
Series [24] addresses Voltage-gated T-type calcium channel (Homo sapiens, UniProt O95180+O43497+Q9P0X4). Nature of the series: Inhibition of T-type calcium channel (unknown origin). The series is classed as protein assay.
Series [25] can be described thus: Plasma clearance in rat at 1 mg/kg, iv or 3 mg/kg, po. It is filed as ADME, organism-based.
The target of series [26] is Sodium channel protein type 8 subunit alpha (Homo sapiens, UniProt Q9UQD0). Nature of the series: Inhibition of human Nav1.6.
Series [27] has as its target Voltage-gated L-type calcium channel (Homo sapiens, UniProt Q13936+Q13698+Q01668+O60840). Nature of the series: Inhibition of L-type calcium channel (unknown origin). The series is classed as protein assay.
Series [28] has as its target Sodium channel protein type 3 subunit alpha (Homo sapiens, UniProt Q9NY46). Nature of the series: Inhibition of human Nav1.3.
Series [29] concerns the target Potassium voltage-gated channel subfamily A member 1 (Homo sapiens, UniProt Q09470). As to the kind of experiment: Inhibition of Kv1.1 (unknown origin).
In series [30] the target is Small conductance calcium-activated potassium channel protein 2 (Homo sapiens, UniProt Q9H2S1). Nature of the series: Inhibition of SK2 (unknown origin).

Sequence of Sodium channel protein type 10 subunit alpha (Q9Y5Y9 whole entry): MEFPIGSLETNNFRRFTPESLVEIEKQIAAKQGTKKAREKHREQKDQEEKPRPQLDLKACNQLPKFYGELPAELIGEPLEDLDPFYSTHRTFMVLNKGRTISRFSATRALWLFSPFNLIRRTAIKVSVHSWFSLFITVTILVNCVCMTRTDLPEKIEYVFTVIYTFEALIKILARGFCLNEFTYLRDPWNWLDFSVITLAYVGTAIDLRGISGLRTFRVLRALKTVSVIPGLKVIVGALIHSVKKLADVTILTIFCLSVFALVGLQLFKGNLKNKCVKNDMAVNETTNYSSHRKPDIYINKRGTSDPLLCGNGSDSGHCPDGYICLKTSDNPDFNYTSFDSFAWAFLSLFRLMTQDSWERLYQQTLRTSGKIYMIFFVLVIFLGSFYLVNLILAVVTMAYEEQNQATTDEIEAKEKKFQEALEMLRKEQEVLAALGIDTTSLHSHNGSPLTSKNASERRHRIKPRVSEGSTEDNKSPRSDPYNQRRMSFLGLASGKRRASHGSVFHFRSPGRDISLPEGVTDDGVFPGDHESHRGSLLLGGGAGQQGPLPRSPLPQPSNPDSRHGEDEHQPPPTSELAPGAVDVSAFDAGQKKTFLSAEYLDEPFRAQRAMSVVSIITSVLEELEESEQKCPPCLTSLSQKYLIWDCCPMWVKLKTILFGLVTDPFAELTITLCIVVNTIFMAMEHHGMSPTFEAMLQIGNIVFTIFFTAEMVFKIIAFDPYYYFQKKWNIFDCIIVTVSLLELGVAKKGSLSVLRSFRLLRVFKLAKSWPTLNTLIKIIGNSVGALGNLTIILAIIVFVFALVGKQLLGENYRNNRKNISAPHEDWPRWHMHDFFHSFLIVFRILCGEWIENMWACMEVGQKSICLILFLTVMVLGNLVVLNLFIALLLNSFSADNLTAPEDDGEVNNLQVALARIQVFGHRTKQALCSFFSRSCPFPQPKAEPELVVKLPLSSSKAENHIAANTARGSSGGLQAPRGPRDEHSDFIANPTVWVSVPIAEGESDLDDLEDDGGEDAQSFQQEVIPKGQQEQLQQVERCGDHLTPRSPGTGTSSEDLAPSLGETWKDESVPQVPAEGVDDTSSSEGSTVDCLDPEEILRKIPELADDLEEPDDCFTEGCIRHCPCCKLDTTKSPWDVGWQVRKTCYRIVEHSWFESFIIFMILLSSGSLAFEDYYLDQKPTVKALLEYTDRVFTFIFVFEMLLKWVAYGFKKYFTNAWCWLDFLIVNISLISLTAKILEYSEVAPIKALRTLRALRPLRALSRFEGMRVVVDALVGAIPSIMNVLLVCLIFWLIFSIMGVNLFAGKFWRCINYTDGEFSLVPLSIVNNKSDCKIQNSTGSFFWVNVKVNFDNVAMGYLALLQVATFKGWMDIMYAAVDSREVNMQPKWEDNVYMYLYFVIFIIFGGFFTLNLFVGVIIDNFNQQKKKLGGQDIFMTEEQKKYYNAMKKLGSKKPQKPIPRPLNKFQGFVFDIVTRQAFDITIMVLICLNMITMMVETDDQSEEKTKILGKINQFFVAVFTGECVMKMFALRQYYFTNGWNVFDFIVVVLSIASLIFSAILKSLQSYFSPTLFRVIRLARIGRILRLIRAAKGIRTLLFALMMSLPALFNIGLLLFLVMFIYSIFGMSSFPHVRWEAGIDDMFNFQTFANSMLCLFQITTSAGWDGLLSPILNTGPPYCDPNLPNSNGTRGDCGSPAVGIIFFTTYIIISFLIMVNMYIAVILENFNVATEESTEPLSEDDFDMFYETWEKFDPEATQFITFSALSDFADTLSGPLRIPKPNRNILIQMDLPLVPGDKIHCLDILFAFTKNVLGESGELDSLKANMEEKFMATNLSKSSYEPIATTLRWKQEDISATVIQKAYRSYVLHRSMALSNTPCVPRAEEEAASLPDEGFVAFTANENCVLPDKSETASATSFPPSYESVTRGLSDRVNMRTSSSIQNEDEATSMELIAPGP
Sequence of Sodium channel protein type 5 subunit alpha (Q14524 whole entry): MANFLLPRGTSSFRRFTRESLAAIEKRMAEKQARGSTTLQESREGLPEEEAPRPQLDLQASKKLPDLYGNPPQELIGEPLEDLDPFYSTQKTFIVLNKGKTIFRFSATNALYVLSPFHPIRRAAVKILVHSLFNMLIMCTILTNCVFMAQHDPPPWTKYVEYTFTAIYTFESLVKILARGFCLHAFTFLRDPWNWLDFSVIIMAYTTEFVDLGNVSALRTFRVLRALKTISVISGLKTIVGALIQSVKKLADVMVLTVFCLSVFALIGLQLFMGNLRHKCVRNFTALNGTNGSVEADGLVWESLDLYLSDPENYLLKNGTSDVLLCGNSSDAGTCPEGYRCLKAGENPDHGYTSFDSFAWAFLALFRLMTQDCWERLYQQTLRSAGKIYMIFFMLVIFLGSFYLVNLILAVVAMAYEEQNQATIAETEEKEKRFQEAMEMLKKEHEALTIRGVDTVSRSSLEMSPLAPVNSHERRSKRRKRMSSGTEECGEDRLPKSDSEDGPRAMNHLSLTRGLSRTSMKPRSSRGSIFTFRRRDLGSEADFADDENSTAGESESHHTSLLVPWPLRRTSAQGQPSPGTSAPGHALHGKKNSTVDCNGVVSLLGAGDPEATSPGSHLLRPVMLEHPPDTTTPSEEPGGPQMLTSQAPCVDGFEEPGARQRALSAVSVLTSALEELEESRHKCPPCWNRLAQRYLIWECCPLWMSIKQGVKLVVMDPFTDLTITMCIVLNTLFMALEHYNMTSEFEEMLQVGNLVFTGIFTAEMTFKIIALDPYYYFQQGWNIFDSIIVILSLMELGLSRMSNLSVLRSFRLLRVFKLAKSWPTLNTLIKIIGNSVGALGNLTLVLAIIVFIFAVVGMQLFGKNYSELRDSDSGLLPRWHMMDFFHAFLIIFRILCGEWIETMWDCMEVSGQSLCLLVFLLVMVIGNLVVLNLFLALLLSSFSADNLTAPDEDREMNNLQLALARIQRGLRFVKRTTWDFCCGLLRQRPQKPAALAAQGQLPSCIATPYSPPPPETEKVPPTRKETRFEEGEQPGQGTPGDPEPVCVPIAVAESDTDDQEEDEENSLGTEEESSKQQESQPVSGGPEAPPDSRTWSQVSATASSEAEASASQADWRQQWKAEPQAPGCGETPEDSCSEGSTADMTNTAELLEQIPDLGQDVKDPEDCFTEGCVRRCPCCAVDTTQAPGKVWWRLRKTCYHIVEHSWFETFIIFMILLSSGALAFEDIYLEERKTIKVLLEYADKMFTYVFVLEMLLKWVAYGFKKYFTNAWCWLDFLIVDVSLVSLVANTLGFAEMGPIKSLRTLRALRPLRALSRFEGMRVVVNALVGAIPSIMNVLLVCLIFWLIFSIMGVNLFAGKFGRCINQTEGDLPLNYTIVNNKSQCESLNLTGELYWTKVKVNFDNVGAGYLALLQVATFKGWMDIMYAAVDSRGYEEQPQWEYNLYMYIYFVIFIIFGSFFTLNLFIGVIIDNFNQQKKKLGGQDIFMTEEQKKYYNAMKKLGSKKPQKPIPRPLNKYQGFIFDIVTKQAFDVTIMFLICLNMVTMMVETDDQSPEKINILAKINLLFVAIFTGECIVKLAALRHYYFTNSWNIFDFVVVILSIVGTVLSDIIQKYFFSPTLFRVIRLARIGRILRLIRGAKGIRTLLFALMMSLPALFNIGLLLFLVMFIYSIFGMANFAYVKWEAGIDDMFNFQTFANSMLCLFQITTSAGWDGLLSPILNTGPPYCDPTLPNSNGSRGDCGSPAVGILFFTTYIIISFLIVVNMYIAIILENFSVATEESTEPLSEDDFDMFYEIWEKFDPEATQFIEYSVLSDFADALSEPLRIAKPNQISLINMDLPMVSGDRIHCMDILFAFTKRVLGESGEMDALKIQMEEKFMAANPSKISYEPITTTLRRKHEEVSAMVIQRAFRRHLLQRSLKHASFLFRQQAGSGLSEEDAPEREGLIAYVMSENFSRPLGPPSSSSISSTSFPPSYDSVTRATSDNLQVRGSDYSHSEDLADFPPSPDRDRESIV
Sequence of Voltage-gated inwardly rectifying potassium channel KCNH2 (Q12809 whole entry): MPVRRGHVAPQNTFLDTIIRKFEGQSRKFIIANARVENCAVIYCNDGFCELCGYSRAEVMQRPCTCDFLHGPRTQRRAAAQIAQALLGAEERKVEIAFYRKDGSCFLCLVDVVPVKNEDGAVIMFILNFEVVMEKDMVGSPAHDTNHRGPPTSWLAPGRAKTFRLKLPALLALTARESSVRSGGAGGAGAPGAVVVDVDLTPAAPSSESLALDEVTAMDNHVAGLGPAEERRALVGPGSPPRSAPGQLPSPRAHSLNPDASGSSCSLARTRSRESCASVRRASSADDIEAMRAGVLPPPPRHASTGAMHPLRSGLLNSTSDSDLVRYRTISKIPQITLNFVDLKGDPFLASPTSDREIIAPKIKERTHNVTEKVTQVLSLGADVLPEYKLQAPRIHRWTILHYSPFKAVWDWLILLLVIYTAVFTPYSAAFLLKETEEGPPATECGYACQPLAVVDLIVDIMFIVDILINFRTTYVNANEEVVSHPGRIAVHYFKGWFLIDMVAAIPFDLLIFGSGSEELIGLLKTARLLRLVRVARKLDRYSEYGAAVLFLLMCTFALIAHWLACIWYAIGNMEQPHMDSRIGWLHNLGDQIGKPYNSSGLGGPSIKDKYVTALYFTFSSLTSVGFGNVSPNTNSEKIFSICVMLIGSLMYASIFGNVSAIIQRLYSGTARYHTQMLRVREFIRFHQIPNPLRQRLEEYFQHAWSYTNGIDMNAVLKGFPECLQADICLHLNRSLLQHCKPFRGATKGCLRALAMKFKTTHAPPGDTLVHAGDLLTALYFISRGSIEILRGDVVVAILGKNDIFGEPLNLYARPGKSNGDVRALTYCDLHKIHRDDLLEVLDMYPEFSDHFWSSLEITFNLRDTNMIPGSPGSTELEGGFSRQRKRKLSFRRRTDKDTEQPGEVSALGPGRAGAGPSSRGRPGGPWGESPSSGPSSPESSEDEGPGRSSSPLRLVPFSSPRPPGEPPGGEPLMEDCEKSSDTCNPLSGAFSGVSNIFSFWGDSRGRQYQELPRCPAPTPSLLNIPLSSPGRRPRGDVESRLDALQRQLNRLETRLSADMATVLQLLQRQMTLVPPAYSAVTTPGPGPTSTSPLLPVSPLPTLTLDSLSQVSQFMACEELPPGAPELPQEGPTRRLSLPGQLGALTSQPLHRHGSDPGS

What is called IC50 is the point on the concentration scale where inhibition reaches its midpoint. For the molecule `CC(C)(C)c1ccc2nc([C@@H](N)CO)cnc2c1`, in series [1], the IC50 is over 1000 nM.
Consider `CCCC(O)c1nc2cc(C(C)(C)C)ccc2[nH]1` (stereo not drawn), for which, in series [1], the IC50 is over 1000 nM.
On the same count and under the same terms, as for `CC(C)(C)c1ccc2nc([C@H](N)CO)cnc2c1`, the figure is over 1000 nM.
One may read the Papp A→B as the apparent permeability from the apical to the basolateral side of a cell layer. Usually pKa stands for the pH at which an ionisable group is half protonated. With `C[C@@H](C(N)=O)[C@H](N)c1cn2cc(C(C)(C)C)ccc2n1`, in [2], the Papp A→B is 2.2 ×10⁻⁶ cm/s. This molecule also yielded a pKa in series [3] of 7. For the same molecule, the IC50 is over 72000 nM in series [4] and over 10000 nM in series [6]. Moreover, the results for the Stability in series [5] and in series [7] were under 11 µL/min and 2.5 µL/min, respectively.
Molecule `CO[C@H](C)[C@H](N)c1nc2cc(OC(F)(F)F)ccc2[nH]1` registered an IC50 in series [1] of 2570 nM.
On the same count and under the same terms, as for `C[C@H](O)[C@@H](N)c1nc2cc(-c3ccc(C#N)cc3)ccc2[nH]1`, the figure is 579 nM; as for `C[C@@H](O)[C@H](N)c1nc2cc(C(F)(F)F)ccc2[nH]1`, 534 nM; as for `CC(C)(C)c1ccc2[nH]c([C@@](C)(N)CO)nc2c1`, 65 nM.
Same read-out and setting: as for `CC(C)(C)c1ccc2[nH]c([C@H]3CCCN3)nc2c1`, the figure is 43 nM; as for `CO[C@H](C)[C@H](N)c1nc2cc(C(C)(C)C)ccc2[nH]1`, 24 nM; as for `CN[C@@H](CC(N)=O)c1nc2cc(C(C)(C)C)ccc2[nH]1`, 742 nM.
Same read-out and setting: as for `CC(C)c1ccc2[nH]c([C@@H](N)[C@@H](C)O)nc2c1`, the figure is 43 nM.
One may read the inhibition as the relative decrease from the control value, in per cent. `CC(C)(C)c1ccc2[nH]c(C(C)(C)N)nc2c1` gave an IC50 in series [1] of 607 nM. Besides, in series [8], 10 µM produced 12% inhibition.
In series [1], `C[C@@H](O)[C@H](N)c1nc2cc(S(F)(F)(F)(F)F)ccc2[nH]1` registered an IC50 of 95 nM.
Same read-out and setting: under `CC(C)(C)c1ccc2[nH]c([C@H]3C[C@@H](O)CN3)nc2c1` stands 31 nM.
Broadly, the half-life is the time needed for the level to fall by half in the phase considered. By AUC(0-inf) is commonly meant the area under the concentration-time curve extrapolated to infinity. A lower AUC(0-inf) goes with low exposure. As a reminder, the bioavailability is dose-corrected exposure relative to a reference, in per cent. The low end stands for little systemic uptake, the high end for much systemic uptake. What is called logD is the decadic logarithm of the distribution of all forms, ionised or not, between an organic phase and buffer at a given pH. A low value points to a more hydrophilic compound. The term solubility denotes the dissolved amount per volume that the medium holds. Lower therefore signals little dissolved substance. Molecule `C[C@@H](C(N)=O)[C@H](N)c1nc2ccc(C(C)(C)C)cc2[nH]1` [PF-06305591] showed a half-life in series [9] of 1.5 h. In addition, the IC50 in [10], in series [11], in [13], in series [14], in [16] and in series [17] was over 30000 nM each time. For the same molecule, the IC50 in series [4] was over 30000 nM; in series [22], over 30000 nM; in series [23] it was over 30000 nM; in [24], over 30000 nM; in series [1], 15 nM; in series [6] it was over 30000 nM. Moreover, the IC50 in series [26], in [27], in series [28], in series [29] and in [30] was over 30000 nM each time. The Papp A→B in series [2] was found to be 3.5 ×10⁻⁶ cm/s. Further, the AUC(0-inf) in series [12] was found to be 962 ng·h/mL. In series [3], this molecule returned a pKa of 5.9. The bioavailability in series [15] worked out at 61%. Moreover, the Vd in series [18] is 2.3 L/kg. The same molecule registered a logD in series [19] of 2.1. For the same molecule, the CL free in [20] was found to be 214 mL/min/kg. For the same molecule, the solubility in series [21] was 2000 µg/mL (≈ 7.29 mM). Also, the Stability is under 11 µL/min in series [5] and under 2 µL/min in series [7]. In addition, in [25], the clearance was 40 mL/min/kg.
As for `CC(C)(C)c1ccc2ncc([C@@H](N)CO)nc2c1`, the IC50 in [1] was over 1000 nM.
On the same count and under the same terms, as for `C[C@@H](O)[C@H](N)c1nc2cc(C(C)(C)C#N)ccc2[nH]1`, the figure is 728 nM; as for `CO[C@H](C)[C@H](N)c1nc2cc(-c3ccc(C#N)nc3)ccc2[nH]1`, 998 nM.
The same measure, in the same setting: under `CC(C)(C)c1ccc2ncc([C@H](N)CO)nc2c1` stands over 1000 nM.
As for `CCC[C@H](N)c1nc2cc(C(C)(C)C)ccc2[nH]1`, the IC50 in series [1] was 2 nM.
The molecule `CC1(c2ccc3[nH]c([C@@H](N)CO)nc3c2)CC1` returned an IC50 in series [1] of 593 nM.
Same read-out and setting: under `CCC(C)c1ccc2[nH]c([C@@H](N)CO)nc2c1` (stereo partly drawn) stands 708 nM.
The same measure, in the same setting: under `CO[C@H](C)[C@H](N)c1nc2cc(-c3ccc(C#N)cc3F)ccc2[nH]1` stands 18 nM.
